# According to patent publication US8003096B2, “Means and methods for the recruitment and identification of stem cells” (Vlaams Interuniversitair Instituut voor Biotechnologie VZW, priority 2003, dated 2011):
# Tests used:
# [1] = system: hematopoietic progenitor cells (HPCs); assay: Circulating CFU-C assay on PB MNCs (mobilized HPCs); type: in vivo, mouse
# Method: (§1) To study the role of the plasminogen proteinase system with its plasminogen activators tPA and uPA, and active plasmin in stem/progenitor cell mobilization, mice lacking plasminogen (Plg^−/−), tPA (tPA^−/−), uPA (uPA^−/−) and both activators (tPA^−/−uPA^−/−) were used.^(17, 18) Age- and sex-matched mice were kept in IVC cages. Mobilization was induced either via a single sublethal injection i.v. of the myeloablative agent 5-fluorouracil (5-FU, 200-250 mg/kg), or via administration s.c. of recombinant human G-CSF (Filgrastim, Amgen, 200 μg/kg/d) for five consecutive days.^(12) Peripheral blood (PB) samples were obtained by retro-orbital bleeding under light anesthesia. Full blood counts were determined on the Abbott Cell Dyn 1300 hemocytometer. The number of mobilized hematopoietic progenitor cells (HPCs) in the circulation was determined via methylcellulose-based CFU-C assays (MethoCult, Stem Cell Technologies), per 10^5 peripheral blood mononuclear cells (PB MNCs).^(12) The number of mobilized hematopoietic stem cells (HSCs) in the circulation was quantified via splenic colony-forming assays (CFU-S), and evaluated for long-term engraftment via transplantation into lethally irradiated syngeneic wild-type recipients (9.5 Gy total body irradiation). […]
# Wild-type mice and mice lacking Plg, both tPA and uPA, tPA, uPA, uPAR, PAI-1, α2AP, MMP-2 (kind gift from S. Itohara), MMP-3 (kind gift from J. Mudgett), MMP-9, MMP-12 (kind gift from S. Shapiro), and TIMP-1 (obtained by courtesy of P. Soloway) were used, and housed in barrier cages (individually ventilated) (Heymans et al. (1999), Nat. Med. 5:1135-42). […] Peripheral blood was repetitively sampled by retro-orbital puncture under light anesthesia, and full blood counts (EDTA buffered) were determined on a hemocytometer (Abbott Cell Dyn 1300). Peripheral blood smears were stained using Giemsa-May-Grunwald and at least 200 cells were analyzed. […]
# [2] = system: hematopoietic stem cells (HSCs); assay: Splenic colony-forming assay CFU-S (mobilized HSCs); type: in vivo, mouse; details: WT mice
# Method: as §1
# circulating WBCs = assay: Circulating WBC counts (full blood counts) during mobilization; type: in vivo, mouse; details: WT mice
# Method: as §1
# BM MNCs (HPCs) = assay: Chemotaxis transwell assay, migrated HPCs scored as CFU-Cs; type: cell-based, mouse; details: factor in bottom well, overnight incubation; GM-CSF 100 ng/ml
# Method: (§2) Mononuclear cells (MNCs) were prepared via Lympholiter-M (Cedarlane) and density centrifugation. For CFU-C assays, bone marrow cells (5×10^4), or PB MNCs (1×10^5 or 5×10^5) were plated in 35 mm dishes (Stem Cell Technologies) using methylcellulose supplemented with growth factors (MethoCult, Stem Cell Technologies), and colonies were blindly scored after seven and thirteen days, respectively, using an inverted microscope (Luttun et al. (2002), Nat. Med. 8:831-40). […] After five weeks of culture, cells were trypsinized, counted, plated in MethoCult, and CFU-Cs were scored after nine days. […] For CFU-S assays, lethal total body irradiation (9.0 to 9.5 Gy), and transplantation of mobilized PB MNCs (1 to 1.5×10^5) were performed in syngeneic recipients, survival was monitored or splenic colonies were blindly scored after twelve days using a dissection microscope. For bone marrow proliferation index, bone marrow cells from treated mice were plated in 96-well plates, CellTiter96 (Promega) was added, and repetitive colorimetric readings were performed at OD 490 nm. […] After overnight incubation, the migrated non-adherent cells in the bottom wells were collected, counted, plated in MethoCult and CFU-Cs were scored after twelve days.
# HSCs = assay: Transplantation of mobilized PB MNCs into lethally irradiated WT recipients, survival; type: in vivo, mouse; details: donors WT mice treated with G-CSF and agent
# Method: as §1
# tPA = assay: In vitro clot lysis with BM plasma samples; type: in vivo, mouse; details: N=4
# From the text: Compared to WT or tPA^−/− mice, uPA^−/− mice had increased mortality and delayed hematopoietic recovery (FIG. 2, Panels b and c). […] Moreover, uPA deficiency reduced the number of BM HSCs (Sca1^+cKit^+) and HPCs (Sca1^+) after 5-FU. Thus, uPA is the responsible plasminogen activator, generating plasmin during 5-FU-induced stem cell mobilization. After G-CSF treatment, the levels of active tPA, but not uPA, increased in the BM plasma, when measured by casein zymography. […] To assess whether the specific up-regulation of tPA in response to G-CSF was functionally relevant, we determined whether tPA^−/− mice were capable of mobilizing stem/progenitor cells in response to G-CSF. […]
# BM extracellular fluid (BM plasma) from mice was obtained as described previously (Petit et al. (2002), Nat. Immunol. 3:687-94). […] Murine sKitL and SDF1α protein levels were quantified using commercial available ELISA (R&D Systems, Abingdon, UK). Murine plasminogen, and murine and human suPAR were quantified by home-made ELISA (Heymans et al. (1999), Nat. Med. 5:1135-42; Sier et al. (2004), Thromb. Haemost. 91:403-11). […] MMP-2, MMP-9, and MMP-12 activities were measured using gelatin-zymography, uPA and MMP-3 activities were measured using casein-zymography, as described previously (Heymans et al. (1999), Nat. Med. 5:1135-42). […]
# BM cells = assay: BM proliferation index; type: in vivo, mouse; details: G-CSF-treated, N=8
# Method: In contrast, HSC translocation and HPC expansion in the bone marrow was completely abolished in G-CSF-treated Plg^−/− mice (FIG. 1, Panels j and k). […] Thus, plasminogen is required for stem/progenitor cell expansion during mobilization.
# Mononuclear cells (MNCs) were prepared via Lympholiter-M (Cedarlane) and density centrifugation. For CFU-C assays, bone marrow cells (5×10^4), or PB MNCs (1×10^5 or 5×10^5) were plated in 35 mm dishes (Stem Cell Technologies) using methylcellulose supplemented with growth factors (MethoCult, Stem Cell Technologies), and colonies were blindly scored after seven and thirteen days, respectively, using an inverted microscope (Luttun et al. (2002), Nat. Med. 8:831-40). […] After five weeks of culture, cells were trypsinized, counted, plated in MethoCult, and CFU-Cs were scored after nine days. […] For CFU-S assays, lethal total body irradiation (9.0 to 9.5 Gy), and transplantation of mobilized PB MNCs (1 to 1.5×10^5) were performed in syngeneic recipients, survival was monitored or splenic colonies were blindly scored after twelve days using a dissection microscope. For bone marrow proliferation index, bone marrow cells from treated mice were plated in 96-well plates, CellTiter96 (Promega) was added, and repetitive colorimetric readings were performed at OD 490 nm. […]
# HPCs in the BM = assay: CFU-Cs (HPCs) in the BM; type: in vivo, mouse; details: WT mice, after two days of treatment
# Method: as §2
# sKitL = sKitL levels in BM plasma (ELISA); type: in vivo, mouse; details: WT mice, after G-CSF
# Method: BM extracellular fluid (BM plasma) from mice was obtained as described previously (Petit et al. (2002), Nat. Immunol. 3:687-94). BM plasma from healthy volunteers was obtained by using the first 10 ml of collection via puncture in the iliac crest under local anesthesia, and immediate anti-coagulation with EDTA. Protein extraction on BM cells was performed as described (Heymans et al. (1999), Nat. Med. 5:1135-42). Murine sKitL and SDF1α protein levels were quantified using commercial available ELISA (R&D Systems, Abingdon, UK). Murine plasminogen, and murine and human suPAR were quantified by home-made ELISA (Heymans et al. (1999), Nat. Med. 5:1135-42; Sier et al. (2004), Thromb. Haemost. 91:403-11). Lyophilized pertussis toxin was obtained from List Laboratories. MMP-2, MMP-9, and MMP-12 activities were measured using gelatin-zymography, uPA and MMP-3 activities were measured using casein-zymography, as described previously (Heymans et al. (1999), Nat. Med. 5:1135-42). Samples from gene-deficient mice were used as negative controls. Plasmin activity of BM plasma or cells (pericellular activity) was measured using substrate colorimetry (S2403), as described previously (Heymans et al. (1999), Nat. Med. 5:1135-42). Fibrinolytic activity was measured using a modified fluorescent-based in vitro clot lysis assay (Heymans et al. (1999), Nat. Med. 5:1135-42). Western blotting was performed on non-reduced samples, which were neutralized with a cocktail of protease inhibitors (Complete Inhibitor, Roche). ECM components/fragments were detected with antibodies against mouse fibronectin and laminin (Sigma), and human D1D2D3 and D2D3 (Andolfo et al. (1999), Thromb. Haemost. 88:298-306), secondary HRP-labeled antibodies (DAKO), and ECL detection system (Amersham Pharmacia).
# HSCs in the BM = assay: HSCs in the BM, LTC-IC assay on AFT024 stromal feeder layers; type: in vivo, mouse; details: WT mice, after two days of treatment
# Method: as §2
# [3] = G-CSF plus drug for five days, compared to control vehicle
# [4] = G-CSF in combination with agent for five days, compared to G-CSF alone
molecule,measurement,setting,value
"NC[C@H]1CC[C@H](C(=O)O)CC1 [exacyl, tranexamic acid]",reduction of G-CSF-induced mobilization of HPCs,"[1]; WT mice, G-CSF plus drug for five days, compared to control vehicle",55%
same,reduction of G-CSF-induced mobilization of HSCs,[2]; [3],49%
same,reduction of G-CSF-induced mobilization of WBCs,circulating WBCs; [3],37%
"GM-CSF: recombinant human GM-CSF (R&D systems), positive control in chemotaxis assay",HPCs in transwell,BM MNCs (HPCs),1363±323
pertussis toxin,mobilization of HPCs,"[1]; uPAR−/− mice, single i.v. bolus of 500 ng, after five days",efficiently mobilized
tenecteplase,enhanced mobilization of HPCs,"[1]; WT mice, G-CSF in combination with agent for five days, compared to G-CSF alone",65%
same,enhanced mobilization of HSCs,[2]; [4],155%
same,enhanced mobilization of WBCs,circulating WBCs; [4],87%
same,survival of lethally irradiated WT recipient mice after transplantation of mobilized cells,HSCs,significantly increased
"G-CSF: recombinant human G-CSF (Filgrastim, Amgen) (protein, chains of the INN, looked up) MTPLGPASSLPQSFLLKCLEQVRKIQGDGAALQEKLCATYKLCHPEELVLLGHSLGIPWAPLSSCPSQALQLAGCLSQLHSGLFLYQGLLQALEGISPELGPTLDTLQLDVADFATTIWQQMEELGMAPALQPTQGAMPAFASAFQRRAGGVLVASHLQSFLEVSYRVLRHLAQP","in vitro clot lysis, percentage of a positive standard",tPA; BM plasma of G-CSF-treated WT mice,79±2%
same,"in vitro clot lysis, percentage of a positive standard",tPA; BM plasma of G-CSF-treated tPA−/− mice,58±2%
same,BM proliferation index (percent of proliferating BM cells in control mice),BM cells; Plg−/− mice,73±8%
same,BM proliferation index (percent of proliferating BM cells in control mice),BM cells; WT mice,167±14%
same,increase of the number of HPCs in the bone marrow,HPCs in the BM,44%
same,sKitL levels in the BM plasma,sKitL,not increased
same,reduction of the number of HSCs in the bone marrow,HSCs in the BM,65%
